Experimental data from ChEMBL document CHEMBL1201862, “PubChem BioAssay data set” (2004).
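1) Cells in 96-well plates. 2) Compound, 48 h, 5 concentrations. 3) Linear interpolation between surrounding doses. 4) Unreached endpoint = highest concentration. GI50 is the concentration that inhibits growth by half.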 Active and inactive are the calls of the source. Rule as the data show it: active = GI50 up to about 1.1 µM and inactive = higher.

What was measured:
Assay in all cases: NCI anticancer screen, dose series, 48 h
HCC 2998 = tested on: HCC 2998
SF-268 = tested on: SF-268
NCI-H226 = tested on: NCI-H226
UO-31 = tested on: UO-31
OVCAR-5 = tested on: OVCAR-5
HOP-62 = tested on: HOP-62
SK-MEL-28 = tested on: SK-MEL-28
IGROV-1 = tested on: IGROV-1
SW-620 = tested on: SW-620
SK-MEL-2 = tested on: SK-MEL-2
OVCAR-4 = tested on: OVCAR-4
SN12C = tested on: SN12C
SNB-19 = tested on: SNB-19
OVCAR-8 = tested on: OVCAR-8
HT-29 = tested on: HT-29
OVCAR-3 = tested on: OVCAR-3
T47D = tested on: T47D
MDA-MB-231 = tested on: MDA-MB-231
DU-145 = tested on: DU-145

Measured: GI50

CSC(=S)N/N=C/c1nccc2ccccc12
inactive: HCC 2998 1.3 µM | NCI-H226 1.69 µM | UO-31 1.94 µM | OVCAR-5 2.74 µM | HOP-62 2.25 µM | SK-MEL-28 2.19 µM | IGROV-1 1.91 µM | OVCAR-4 1.16 µM | SN12C 1.6 µM | SNB-19 2.29 µM
active: SF-268 1.04 µM | SW-620 0.631 µM | SK-MEL-2 1.07 µM | OVCAR-8 0.454 µM | HT-29 0.701 µM

CC(=O)O[C@]1(C)OC(=O)[C@@H](CC(C)C)N1[N+](=O)[O-]
inactive: HCC 2998 > 100 µM | NCI-H226 > 100 µM | UO-31 > 100 µM | OVCAR-5 > 100 µM | HOP-62 > 100 µM | SK-MEL-28 > 100 µM | IGROV-1 > 100 µM | SW-620 > 100 µM | SK-MEL-2 > 100 µM | OVCAR-4 > 100 µM | SN12C > 100 µM | SNB-19 > 100 µM | OVCAR-3 > 100 µM | OVCAR-8 > 100 µM | HT-29 > 100 µM

CC1(C)OC(=O)C(=C2CC(c3ccccc3)c3ccccc32)C(=O)O1 (stereo not drawn)
inactive: HCC 2998 > 100 µM | SF-268 > 100 µM | NCI-H226 > 100 µM | UO-31 > 100 µM | OVCAR-5 > 100 µM | HOP-62 > 100 µM | SK-MEL-28 > 100 µM | IGROV-1 > 100 µM | SW-620 > 100 µM | OVCAR-4 > 100 µM | SN12C > 100 µM | SNB-19 > 100 µM | OVCAR-3 > 100 µM | OVCAR-8 > 100 µM | HT-29 > 100 µM

[O-][S+]1Nc2cccc(C(F)(F)F)c2S1 (stereo not drawn)
inactive: HCC 2998 26.4 µM | SF-268 48 µM | NCI-H226 73.3 µM | UO-31 19.1 µM | OVCAR-5 69.8 µM | HOP-62 49.8 µM | SK-MEL-28 > 100 µM | IGROV-1 38.5 µM | SW-620 9.91 µM | SK-MEL-2 24.3 µM | OVCAR-4 46.7 µM | SN12C 35.6 µM | SNB-19 67.1 µM | OVCAR-3 33.5 µM | OVCAR-8 54.8 µM | HT-29 35.7 µM

O=c1nc2sc3ccc4ccccc4c3n2nc1-c1ccccc1
inactive: HCC 2998 > 100 µM | SF-268 37.3 µM | NCI-H226 59.2 µM | UO-31 22.3 µM | OVCAR-5 > 100 µM | HOP-62 26.7 µM | SK-MEL-28 35.6 µM | IGROV-1 25.4 µM | SW-620 32.5 µM | SK-MEL-2 > 100 µM | OVCAR-4 14.7 µM | SN12C 27.2 µM | SNB-19 29.4 µM | OVCAR-3 19 µM | OVCAR-8 18.9 µM | HT-29 94.8 µM

CC(C)N1CC2CC(CN(C(=O)c3ccccc3)C2)C1.[O-][Cl+3]([O-])([O-])O
inactive: HCC 2998 > 100 µM | SF-268 > 100 µM | NCI-H226 72.9 µM | UO-31 > 100 µM | OVCAR-5 > 100 µM | HOP-62 > 100 µM | SK-MEL-28 > 100 µM | IGROV-1 > 100 µM | SW-620 > 100 µM | SK-MEL-2 > 100 µM | OVCAR-4 > 100 µM | SN12C > 100 µM | SNB-19 > 100 µM | OVCAR-3 > 100 µM | OVCAR-8 > 100 µM | HT-29 > 100 µM

CCOC(=O)NC(=O)c1cn(CCN2CCN(C(=O)CCCCCCCCCCNc3ncnc4[nH]cnc34)CC2)c(=O)[nH]c1=O
inactive: HCC 2998 > 100 µM | SF-268 13.1 µM | NCI-H226 > 100 µM | UO-31 > 100 µM | OVCAR-5 > 100 µM | HOP-62 > 100 µM | SK-MEL-28 11.5 µM | IGROV-1 > 100 µM | SW-620 > 100 µM | SK-MEL-2 > 100 µM | OVCAR-4 > 100 µM | SN12C > 100 µM | SNB-19 > 100 µM | OVCAR-3 > 100 µM | OVCAR-8 > 100 µM | HT-29 > 100 µM

CC1=C(C(=O)Nc2cc(F)c(F)cc2F)C(c2ccc3c(c2)OCO3)C(C(=O)Nc2cc(F)c(F)cc2F)=C(C)N1
inactive: HCC 2998 19.2 µM | SF-268 23.3 µM | NCI-H226 23.9 µM | UO-31 12.9 µM | OVCAR-5 19.9 µM | HOP-62 16.8 µM | SK-MEL-28 33.2 µM | IGROV-1 28.7 µM | SW-620 33.5 µM | SK-MEL-2 18 µM | OVCAR-4 19.6 µM | SN12C 18.7 µM | SNB-19 38.4 µM | OVCAR-3 15.7 µM | OVCAR-8 31 µM | HT-29 27.4 µM

C[C@@H]1CC(=O)C2CCCC1C2=O (stereo partly drawn)
inactive: HCC 2998 > 100 µM | SF-268 > 100 µM | NCI-H226 > 100 µM | UO-31 > 100 µM | OVCAR-5 > 100 µM | HOP-62 > 100 µM | SK-MEL-28 > 100 µM | IGROV-1 > 100 µM | SW-620 > 100 µM | OVCAR-4 > 100 µM | SN12C > 100 µM | SNB-19 > 100 µM | OVCAR-3 > 100 µM | OVCAR-8 > 100 µM | HT-29 > 100 µM

O=C(CCC(=O)Nc1cccc(C(F)(F)F)c1)CC(=O)c1ccc2ccccc2c1
inactive: HCC 2998 > 100 µM | SF-268 > 100 µM | NCI-H226 > 100 µM | UO-31 > 100 µM | OVCAR-5 > 100 µM | IGROV-1 > 100 µM | SW-620 > 100 µM | SK-MEL-2 > 100 µM | OVCAR-4 > 100 µM | SN12C > 100 µM | SNB-19 > 100 µM | OVCAR-3 > 100 µM | OVCAR-8 > 100 µM | HT-29 > 100 µM

COc1cc2cc(OC)c3cc4c(cc3c2c(OC)c1OC)OCO4
inactive: HCC 2998 11 µM | SF-268 > 51.1 µM | NCI-H226 > 100 µM | UO-31 29.4 µM | OVCAR-5 25.2 µM | HOP-62 42.6 µM | SK-MEL-28 > 39.6 µM | IGROV-1 > 66.8 µM | SW-620 18.6 µM | SK-MEL-2 71 µM | OVCAR-4 39.4 µM | SN12C > 69.3 µM | SNB-19 > 100 µM | OVCAR-3 41.5 µM | OVCAR-8 > 59.4 µM | HT-29 10.9 µM

O=C(/C=C/c1ccc(Br)cc1)c1ccc(NCc2nc3ccccc3[nH]2)cc1
inactive: HCC 2998 6.56 µM | SF-268 8.18 µM | NCI-H226 10.9 µM | UO-31 7.73 µM | OVCAR-5 > 59.8 µM | HOP-62 22.2 µM | SK-MEL-28 18.6 µM | IGROV-1 17.3 µM | SW-620 2.96 µM | SK-MEL-2 17.6 µM | OVCAR-4 14.4 µM | SN12C 9.93 µM | SNB-19 8.79 µM | OVCAR-3 4.61 µM | OVCAR-8 3.37 µM | HT-29 4.65 µM

O=C(CCc1ccccc1)NS(=O)(=O)c1ccccc1
inactive: HCC 2998 > 100 µM | SF-268 > 100 µM | NCI-H226 > 100 µM | UO-31 > 100 µM | OVCAR-5 > 100 µM | HOP-62 > 100 µM | SK-MEL-28 > 100 µM | IGROV-1 > 100 µM | SW-620 > 100 µM | SK-MEL-2 > 100 µM | OVCAR-4 > 100 µM | SN12C > 100 µM | SNB-19 > 100 µM | OVCAR-3 > 100 µM | OVCAR-8 > 100 µM | HT-29 > 100 µM

C1CCOC2(CCC3(CC2)OCCCCO3)OC1
inactive: HCC 2998 > 100 µM | SF-268 > 100 µM | NCI-H226 > 100 µM | UO-31 > 100 µM | HOP-62 > 100 µM | SK-MEL-28 > 100 µM | IGROV-1 > 100 µM | SW-620 > 100 µM | SK-MEL-2 > 100 µM | OVCAR-4 > 100 µM | SN12C > 100 µM | SNB-19 > 100 µM | OVCAR-8 > 100 µM

CCCC(O)[C@@H](O)c1ccc2c(c1O)C(=O)c1c(OC)cccc1C2=O (stereo partly drawn)
inactive: HCC 2998 19.4 µM | SF-268 57.7 µM | NCI-H226 27.3 µM | UO-31 28.2 µM | OVCAR-5 54.7 µM | HOP-62 55.2 µM | SK-MEL-28 66.4 µM | IGROV-1 30.7 µM | SW-620 63.2 µM | SK-MEL-2 46.8 µM | OVCAR-4 25 µM | SN12C 40.4 µM | SNB-19 80.4 µM | OVCAR-3 34.8 µM | OVCAR-8 30.1 µM | HT-29 38.9 µM

C[N+](C)(C)CC1CCC(C[N+](C)(C)C)C1=O (stereo not drawn)
inactive: HCC 2998 8.63 µM | NCI-H226 12.9 µM | T47D 3.42 µM | UO-31 4.34 µM | OVCAR-5 7.28 µM | MDA-MB-231 19.6 µM | HOP-62 19.2 µM | IGROV-1 7.94 µM | SK-MEL-2 14.9 µM | OVCAR-4 2.38 µM | SN12C 4.12 µM | DU-145 15.5 µM | SNB-19 17.9 µM | OVCAR-3 2.39 µM | HT-29 1.56 µM

Cn1c2ccccc2c2[nH]cc3nc4ccccc4c-3c21
inactive: HCC 2998 > 100 µM | SF-268 22.8 µM | NCI-H226 22.4 µM | UO-31 13 µM | OVCAR-5 19.2 µM | HOP-62 > 100 µM | SK-MEL-28 14.8 µM | IGROV-1 18 µM | SW-620 24.7 µM | SK-MEL-2 > 100 µM | OVCAR-4 15.6 µM | SN12C 23.5 µM | SNB-19 26.1 µM | OVCAR-3 17.1 µM | OVCAR-8 20.3 µM | HT-29 15.8 µM

COc1ccc(C2Cc3cc(OC)c(OC)c(OC)c3C2)cc1 (stereo not drawn)
inactive: HCC 2998 49.9 µM | SF-268 47.1 µM | NCI-H226 34.9 µM | UO-31 21.3 µM | OVCAR-5 90.4 µM | HOP-62 97.5 µM | SK-MEL-28 31.2 µM | IGROV-1 > 100 µM | SW-620 29.4 µM | SK-MEL-2 30.6 µM | OVCAR-4 59.6 µM | SN12C 52.2 µM | SNB-19 55.6 µM | OVCAR-3 38.8 µM | OVCAR-8 48.5 µM | HT-29 28.1 µM
